Molecules are shown by their SMILES. pIC50: −log10 of the molar value. Active and inactive are the calls of the source. The calls are words filed in the database; no cut-off is given here.

Data set [1] relates to RAW264.7. Description: Antiinflammatory activity in mouse RAW264.7 cells assessed as inhibition of LPS-induced NOS2 expression at 20 uM treated 30 mins before LPS stimulation measured after 24 hrs by Western blotting. Format: functional, cell-based. On the technique in general: Immunoblotting shows a protein as a band on a membrane.
Data set [2] concerns RAW264.7. The experiment in a line: Cytotoxicity against mouse RAW264.7 cells assessed as cell viability at 10 to 20 uM after 24 hrs by MTT assay. It is filed as cell-based. The conditions noted are these: raw264.7, 24 h. (Formazan colour is commonly taken as a measure of viable cells.)
Data set [3] has as its system RAW264.7. The experiment in a line: Antiinflammatory activity in mouse RAW264.7 cells assessed as inhibition of LPS-induced COX2 expression at 20 uM treated 30 mins before LPS stimulation measured after 24 hrs by Western blotting. Format: functional, cell-based.
In data set [4] the test system is RAW264.7. The experiment in a line: Antiinflammatory activity in mouse RAW264.7 cells assessed as inhibition of LPS-induced NOS2 expression at 10 to 20 uM treated 30 mins before LPS stimulation measured after 24 hrs by Western blotting. It is filed as functional, cell-based.
Data set [5] has as its system RAW264.7. The experiment in a line: Antiinflammatory activity in mouse RAW264.7 cells assessed as inhibition of LPS-induced COX2 expression at 10 to 20 uM treated 30 mins before LPS stimulation measured after 24 hrs by Western blotting. It is filed as functional, cell-based.
The test system of data set [6] is RAW264.7. Description: Antiinflammatory activity in mouse RAW264.7 cells assessed as inhibition of LPS-induced nitric oxide production treated 30 mins before LPS stimulation measured after 24 hrs by Griess assay. Format: functional, cell-based. For orientation: The Griess reaction detects nitrite, a stable product of nitric oxide.
Data set [7] deals with RAW264.7. The experiment in a line: Inhibition of NFkappaB activation in mouse RAW264.7 cells assessed as reduction of LPS-induced IkappaBalpha level in cytosol at 20 uM treated 30 mins before LPS stimulation measured after 24 hrs by Western blotting. It is filed as cell-based.
Data set [8] has as its system RAW264.7. The experiment in a line: Inhibition of NFkappaB activation in mouse RAW264.7 cells assessed as reduction of LPS-induced p65 level in nucleus at 20 uM treated 30 mins before LPS stimulation measured after 24 hrs by Western blotting. It is filed as cell-based.
Data set [9] relates to RAW264.7. The experiment in a line: Inhibition of NFkappaB activation in mouse RAW264.7 cells assessed as reduction of LPS-induced IkappaBbeta level in cytosol at 20 uM treated 30 mins before LPS stimulation measured after 24 hrs by Western blotting. It is filed as cell-based.

For the compound `COc1cc(-n2c(-c3ccccc3)nc3cc(OC)c4ccccc4c32)c(OC)c2ccccc12`, the inhibition result with RAW264.7 [1] and with RAW264.7 [3] was “inactive” in each case. For the same compound, the Activity entry in the data set on RAW264.7 [2] is listed as “Non-toxic”.

With `COc1cc(-n2c(-c3ccc([N+](=O)[O-])cc3)nc3cc(OC)c4ccccc4c32)c(OC)c2ccccc12`, the Activity entry in the data set with RAW264.7 [2] is recorded as “Non-toxic”.

The term pIC50 denotes −log10 of the IC50, conventionally taken in molar units. For `COc1cc(-n2c(-c3cccnc3)nc3cc(OC)c4ccccc4c32)c(OC)c2ccccc12`, the inhibition result in the data set on RAW264.7 [4], with RAW264.7 [5], in the data set with RAW264.7 [7], with RAW264.7 [8] and in the data set on RAW264.7 [9] was “Active” each time. For the same compound, in the data set with RAW264.7 [2], the Activity result was “Non-toxic”. The pIC50 with RAW264.7 [6] is 5.08. The inhibition entry in the data set on RAW264.7 [6] was “Dose-dependent effect”.

As to `COc1cc(-n2c(-c3cccc(F)c3)nc3cc(OC)c4ccccc4c32)c(OC)c2ccccc12`, the Activity result in the data set on RAW264.7 [2] was “Non-toxic”.

As to `COc1cc(-n2c(-c3ccsc3)nc3cc(OC)c4ccccc4c32)c(OC)c2ccccc12`, in the data set with RAW264.7 [2], the Activity entry was “Non-toxic”.

Consider `COc1cc2nc(-c3ccc([N+](=O)[O-])cc3)n(-c3ccccc3Br)c2c2ccccc12`, for which the Activity result with RAW264.7 [2] is “Non-toxic”.
